Organism: Rattus norvegicus
Test: Open TG-GATES - Regimen: Single
Format: toxicity, organism-based, Sprague-Dawley
Design: regimen Single, gender Male, age 6 weeks
Settings: in vivo, po, 1000 mg/kg, route gavage, dose level High; for APTT / Bas / Eos / Fbg / Hb / Ht / Lym / MCH / MCHC / MCV / Mono / Neu / PT / Plat / RBC / Ret / WBC: tissue Blood; for KIDNEY_L / KIDNEY_R / KIDNEY_TOTAL: tissue Kidney; for LIVER: tissue Liver; for A/G / ALP / ALT / AST / BUN / CRE / Ca / Cl / DBIL / GLC / IP / K / LDH / Na / PL / RALB / TBIL / TC / TG / TP / gamma-GTP: tissue Plasma

`O=C(OC[C@H]1O[C@@H](OC(=O)c2cc(O)c(O)c(OC(=O)c3cc(O)c(O)c(O)c3)c2)[C@H](OC(=O)c2cc(O)c(O)c(OC(=O)c3cc(O)c(O)c(O)c3)c2)[C@@H](OC(=O)c2cc(O)c(O)c(OC(=O)c3cc(O)c(O)c(O)c3)c2)[C@@H]1OC(=O)c1cc(O)c(O)c(OC(=O)c2cc(O)c(O)c(O)c2)c1)c1cc(O)c(O)c(OC(=O)c2cc(O)c(O)c(O)c2)c1` [TANNIC ACID] was tested, and the TERMINAL_BW (3 h) was 189.4 g, the APTT (3 h) was 17.2 s and the Bas (3 h) was 0%. For the same compound, the Eos (3 h) was 1%, the Fbg (3 h) was 221.2 mg/dL and the Hb (3 h) was 13 g/dL. It also gave a Ht (3 h) of 38.9%, a Lym (3 h) of 81.6% and an MCH (3 h) of 21.7 pg. It also gave an MCHC (3 h) of 33.3%, an MCV (3 h) of 65.1 fL and a Mono (3 h) of 4.8%. For the same compound, the Neu (3 h) was 12.8%, the PT (3 h) was 11.9 s and the Plat (3 h) was 110.6 x10_4/uL. It also gave an RBC (3 h) of 597.4 x10_4/ul, a Ret (3 h) of 10.3% and a WBC (3 h) of 104.1 x10_2/uL. The KIDNEY_L (3 h) was 0.9 g, the KIDNEY_R (3 h) was 0.9 g and the KIDNEY_TOTAL (3 h) was 1.8 g. It also gave an LIVER (3 h) of 8.5 g, an A/G (3 h) of 2 and an ALP (3 h) of 805 IU/L. It also gave an ALT (3 h) of 39.6 IU/L, an AST (3 h) of 69.6 IU/L and a BUN (3 h) of 12.2 mg/dL. For the same compound, the CRE (3 h) was 0.4 mg/dL, the Ca (3 h) was 10.8 mg/dL and the Cl (3 h) was 104.6 meq/L. For the same compound, the DBIL (3 h) was 0.016 mg/dL, the GLC (3 h) was 191.4 mg/dL and the IP (3 h) was 10.2 mg/dL. It also gave a K (3 h) of 4.9 meq/L, an LDH (3 h) of 101.8 IU/L and a Na (3 h) of 138.2 meq/L. For the same compound, the PL (3 h) was 128.2 mg/dL, the RALB (3 h) was 3.7 g/dL and the TBIL (3 h) was 0.5 mg/dL. It also gave a TC (3 h) of 72.8 mg/dL, a TG (3 h) of 35.8 mg/dL and a TP (3 h) of 5.5 g/dL. For the same compound, the gamma-GTP (3 h) was 1.2 IU/L, the TERMINAL_BW (6 h) was 183.9 g and the APTT (6 h) was 16.7 s. It also gave a Bas (6 h) of 0%, an Eos (6 h) of 1% and a Fbg (6 h) of 211 mg/dL. The Hb (6 h) was 13.5 g/dL, the Ht (6 h) was 40.6% and the Lym (6 h) was 76.2%. The MCH (6 h) was 22 pg, the MCHC (6 h) was 33.3% and the MCV (6 h) was 66.1 fL. It also gave a Mono (6 h) of 7%, a Neu (6 h) of 16.2% and a PT (6 h) of 12 s. The Plat (6 h) was 115.1 x10_4/uL, the RBC (6 h) was 613.8 x10_4/ul and the Ret (6 h) was 9.7%. It also gave a WBC (6 h) of 101 x10_2/uL, a KIDNEY_L (6 h) of 0.9 g and a KIDNEY_R (6 h) of 0.9 g. For the same compound, the KIDNEY_TOTAL (6 h) was 1.8 g, the LIVER (6 h) was 7.5 g and the A/G (6 h) was 1.8. It also gave an ALP (6 h) of 682.8 IU/L, an ALT (6 h) of 41.4 IU/L and an AST (6 h) of 68.8 IU/L. The BUN (6 h) was 11.4 mg/dL, the CRE (6 h) was 0.4 mg/dL and the Ca (6 h) was 10.6 mg/dL. The Cl (6 h) was 105.8 meq/L, the DBIL (6 h) was 0.008 mg/dL and the GLC (6 h) was 183.4 mg/dL. The IP (6 h) was 11 mg/dL, the K (6 h) was 5 meq/L and the LDH (6 h) was 81.4 IU/L. For the same compound, the Na (6 h) was 138.8 meq/L, the PL (6 h) was 113.6 mg/dL and the RALB (6 h) was 3.4 g/dL. The TBIL (6 h) was 0.7 mg/dL, the TC (6 h) was 65.2 mg/dL and the TG (6 h) was 22.2 mg/dL. It also gave a TP (6 h) of 5.3 g/dL, a gamma-GTP (6 h) of 1.2 IU/L and a TERMINAL_BW (9 h) of 185.5 g. It also gave an APTT (9 h) of 16.9 s, a Bas (9 h) of 0% and an Eos (9 h) of 1%. The Fbg (9 h) was 221 mg/dL, the Hb (9 h) was 13.1 g/dL and the Ht (9 h) was 39.1%. It also gave a Lym (9 h) of 73%, an MCH (9 h) of 22.3 pg and an MCHC (9 h) of 33.6%. It also gave an MCV (9 h) of 66.5 fL, a Mono (9 h) of 8% and a Neu (9 h) of 18.4%. It also gave a PT (9 h) of 12.3 s, a Plat (9 h) of 119.4 x10_4/uL and an RBC (9 h) of 589.2 x10_4/ul. For the same compound, the Ret (9 h) was 9.2%, the WBC (9 h) was 87.8 x10_2/uL and the KIDNEY_L (9 h) was 0.9 g. It also gave a KIDNEY_R (9 h) of 0.8 g, a KIDNEY_TOTAL (9 h) of 1.7 g and an LIVER (9 h) of 7.1 g. It also gave an A/G (9 h) of 2.3, an ALP (9 h) of 772.8 IU/L and an ALT (9 h) of 42.4 IU/L. For the same compound, the AST (9 h) was 68.8 IU/L, the BUN (9 h) was 12.2 mg/dL and the CRE (9 h) was 0.4 mg/dL. The Ca (9 h) was 10.2 mg/dL, the Cl (9 h) was 106.8 meq/L and the DBIL (9 h) was 0.08 mg/dL. For the same compound, the GLC (9 h) was 193 mg/dL, the IP (9 h) was 10.8 mg/dL and the K (9 h) was 5 meq/L. The LDH (9 h) was 69 IU/L, the Na (9 h) was 137 meq/L and the PL (9 h) was 113.8 mg/dL. For the same compound, the RALB (9 h) was 3.7 g/dL, the TBIL (9 h) was 0.9 mg/dL and the TC (9 h) was 61.6 mg/dL. The TG (9 h) was 16 mg/dL, the TP (9 h) was 5.4 g/dL and the gamma-GTP (9 h) was 2 IU/L. The TERMINAL_BW (24 h) was 198.6 g, the APTT (24 h) was 17.8 s and the Bas (24 h) was 0%. The Eos (24 h) was 1%, the Fbg (24 h) was 221.4 mg/dL and the Hb (24 h) was 12.6 g/dL. For the same compound, the Ht (24 h) was 38.2%, the Lym (24 h) was 75.2% and the MCH (24 h) was 21.5 pg. The MCHC (24 h) was 33.1%, the MCV (24 h) was 64.8 fL and the Mono (24 h) was 9.2%. It also gave a Neu (24 h) of 15%, a PT (24 h) of 11.8 s and a Plat (24 h) of 104.8 x10_4/uL. It also gave an RBC (24 h) of 588.8 x10_4/ul, a Ret (24 h) of 9.3% and a WBC (24 h) of 91 x10_2/uL. For the same compound, the KIDNEY_L (24 h) was 0.9 g, the KIDNEY_R (24 h) was 0.9 g and the KIDNEY_TOTAL (24 h) was 1.7 g. It also gave an LIVER (24 h) of 9.2 g, an A/G (24 h) of 1.9 and an ALP (24 h) of 893.8 IU/L. The ALT (24 h) was 36.4 IU/L, the AST (24 h) was 62.4 IU/L and the BUN (24 h) was 18 mg/dL. The CRE (24 h) was 0.5 mg/dL, the Ca (24 h) was 10.8 mg/dL and the Cl (24 h) was 104.2 meq/L. The DBIL (24 h) was 0 mg/dL, the GLC (24 h) was 184 mg/dL and the IP (24 h) was 7.8 mg/dL. The K (24 h) was 4.6 meq/L, the LDH (24 h) was 110.8 IU/L and the Na (24 h) was 138.6 meq/L. It also gave a PL (24 h) of 133.4 mg/dL, an RALB (24 h) of 3.5 g/dL and a TBIL (24 h) of 0.3 mg/dL. The TC (24 h) was 72.2 mg/dL, the TG (24 h) was 79.6 mg/dL and the TP (24 h) was 5.4 g/dL. It also gave a gamma-GTP (24 h) of 0.8 IU/L.
